Columns and labels:
[1] = tested on: mucous secretion; experiment: inhibition of mucous secretion assay of Johnson; details: active = inhibits or blocks enhancement of induced mucous secretions
Excerpt: The inhibition of mucous secretion assay of Johnson Int. […] According to this procedure compounds which inhibit or block enhancement of induced mucous secretions when tested are considered to be "active".

[2] = tested on: interleukin-1; experiment: inhibition of interleukin-1 induced T cell proliferation assay; format: cell-based; details: for % Inhibition at 10⁻⁶ M: interleukin-1 induced T cell proliferation
Excerpt: The inhibition of interleukin-1 induced T cell proliferation assay, Proc. Nat. […] Since people with arthritis make excess interleukin 1, compounds which inhibit the activity of interleukin 1 are useful in the treatment of arthritis. According to this procedure compounds which inhibit the activity of interleukin 1 greater that 30% at 10⁻⁶ M are considered to be "active".

[3] = tested on: chick embryo; experiment: fertile egg or chick embryo assay of Folkman (angiogenesis); format: in vivo; details: 50 »g/10 »l in the presence of heparin
Excerpt: According to this procedure compounds which are considered to be "active" (i.e. antiangiogenic) give an avascular zone of 4 mm or greater in some embryos when tested at 50 »g/10 »l in the presence of 50 »g/10 » of heparin.

[4] = tested on: aspirin/cold induced ulcer; experiment: aspirin/cold induced ulcer assay of Rainsford; format: in vivo; details: active = 50% or more reduction of ulcer index
Excerpt: According to this procedure compounds which give a 50% or more reduction of ulcer index are considered to be "active".

[5] = tested on: rat brain synaptosomes; experiment: Malonyldialdehyde (MDA) Formation Assay; format: biochemical; details: active = inhibits MDA formation by 50% or more at 200»M or less; 10 min at 37°, pH 7.0, 150 uM Fe+++ and 50 uM Fe++
Experimental: Since lipid peroxidation is involved in the pathophysiology of central nervous system trauma, compounds which inhibit MDA formation are useful in treating the conditions listed below.
While not necessary to determine MDA formation, the above assays have been modified as follows: rat brain synaptosomes are prepared as described in the Example about the conjugated diene assay, except that the final wash of the synaptosomes and final suspension are in physiological (normal) saline in which the pH has been adjusted to 7.0. The synaptosomes are incubated for 10 min at 37° in physiological (normal) saline pH 7.0 (total volume = 100 ul) containing; 10 ul synaptosomal suspension, 10% DMSO plus or minus drug, 150 uM Fe⁺⁺⁺ and 50 uM Fe++. The incubation is started by the rapid addition of iron to the otherwise complete reaction. The iron solutions are prepared fresh as ferric chloride and ferrous ammonium sulfate in argon-purged water. Following the 10 min incubation, the reaction is stopped by the addition of 500 ul ice-cold 12% trichloroacetic acid prepared in 0.5 N hydrochoric acid. Water (300 ul) is then added along with 100 ul of freshly prepared thiobarbituric acid (3.3% in 0.5N sodium hydroxide) and 10 ul of 5mM desferrioxamine. The sample is then heated in a boiling water bath for 20 minutes. The samples are cooled and centrifuged for 15 minutes at 1500 xg and the absorbance of the supernatant fraction is read at 532 nm. The % inhibition of MDA formation is calculated by dividing the absorbance of sample containing drug by the absorbance of samples incubated without drug. Reaction blanks are samples incubated in the absence of iron. A compound that inhibits MDA formation by 50% or more at a concentration of 200»M or less is considered "active".

[6] = tested on: rat brain synaptosomes; experiment: Conjugated Diene Formation Assay; format: biochemical; details: active = inhibits conjugated diene formation by 50% or more; 100 »M (or less) of drug, 100 »M hydrogen peroxide, 200 »M ferrous ammonium sulfate
Excerpt: The formation of conjugated dienes as assayed by Braughler, J. Neurochem., 44, 1282 (1985), Bucher, Fund. Applied Tox., 3, 222 (1983) and Tein, Arch. Biochem. Biophy., 216, 142 (1982) is a standard pharmacological laboratory procedure useful for identifying compounds which inhibit lipid peroxidation. Since lipid peroxidation is involved in the pathophysiology of central nervous system trauma, compounds which inhibit conjugated diene formation are useful in treating the conditions listed below.
44, 1282 (1985). Synaptosomal suspension (10 »l) is added to 1 ml of physiological (normal) saline containing 1 % Lubrol PX (Sigma Chemical Co. St. Louis, Mo.), 100 »M hydrogen peroxide and 100 »M (or less) of the drug to be tested prepared in either absolute ethanol or water depending upon solubility. The reaction is started by the rapid addition of 200 »M ferrous ammonium sulfate is prepared in argon-purged water. The sample is rapidly mixed and the change in absorbance at 232nm is followied in a Gilford Response Spectrophotometer equipped with a rapid sampler. Due to the rapidity of the reaction, rapid addition of the iron, rapid mixing and sampling are obligatory to the accuracy of the assay. For best results absorbance readings of one/sec should be started within 5 sec following the addition of iron. The initial linear rate of absorbance change during the first 30 sec of reaction are compared with the rate of a reaction containing all reagents except synaptosomes. The difference in rates is the rate of conjugated diene formation. Rates with drug are compared to rates obtained in the absence of drug and the % inhibition is calculated. A compound that inhibits conjugated diene formation by 50% or more is considered to be "active".

[7] = tested on: arachidonic acid; experiment: Arachidonic Acid Antagonism Assay (AAAA); format: in vivo; details: active = elevates the LD50 of sodium arachidonate outside the 95% confidence interval of the control LD50; test compound IV 15 minutes before; male CF-1 mice
Experimental: Since these metabolites contribute to the pathological problems associated with stroke, spinal trauma and head injury, compounds which antagonize arachidonic acid are useful in treating stroke, spinal trauma and head injury.
While not necessary to determine arachidonic acid antagonism, the above assay has been modified as follows: Charles River male CF-1 mice weighing 18-22g are treated IV with the test compound dissolved in 1.0% Tween-80 and 0.1% hydrochloric acid in distilled water, 0.2 ml total volume. Fifteen minutes later sodium arachidonate (90% pure) in physiological (normal) saline is injected into the tail vein. The LD₅₀ is measured using the Spearman-Karber method with a log dose interval of 0.05 (N=6). Compounds which elevate the LD₅₀ outside of the 95% confidence interval of the control LD₅₀ are considered to be "active".

[8] = tested on: SEA Japanese Quail; experiment: Antiatherosclerosis Screen in SEA Japanese Quail; format: in vivo; details: quail fed an atherogenic diet; active = decrease of serum or arterial cholesterol > 30 %
[9] = tested on: ACAT; experiment: AcylCoA:Cholesterol Acyltransferase (ACAT) Inhibition Assay; format: cell-based; details: for inhibiting ACAT: active = inhibits ACAT activity equal to, or greater than, that of chlorpromazine
Excerpt: ACAT esterifies arterial cholesterol which is a key reaction in the development of atherosclerosis. The procedure of Bell, Can. […] In the ACAT assay it is preferred to use Fu5AH cells, see Lipids 9, 526 (1974). According to this procedure, compounds which inhibit ACAT activity equal to, or greater than, that of chlorpromazine are considered "active".

[10] = tested on: mouse head injury; experiment: in vivo mouse head injury procedure of Hall (1 hr post-injury grip test); details: 1 hr after head injury, statistically significant (p < 0.05)

Compound: C[C@]12CCC(=O)C=C1CC[C@@H]1C2=CC[C@@]2(C)[C@H]1CC[C@]2(O)C(=O)CN1CCN(c2cc(N3CCOCC3)nc(N3CCOCC3)n2)CC1.Cl.Cl.O [Example 105, 21-[4-(2,6-Bis(4-morpholinyl)-4-pyrimidinyl)-1-piperazinyl]-17α-hydroxypregna-4,9(11)-diene-3,20-dione dihydrochloride, hydrate]
- inhibition of mucous secretion ([1]; dihydrochloride, hydrate): preferred mucous inhibitors
- % Inhibition at 10⁻⁶ M [2]: 76%

Compound: 11α,17α-Dihydroxy-21-[4-(2-pyridinyl)-1-piperazinyl]pregn-4-ene-3,20-dione 11-(3,3-dimethyl-1-butyrate dihydrochloride [Example 28]
- % of Embryos with 4 mm or Greater Avascular Zone [3]: 73%

Compound: CN(C)c1cc(N2CCN(CC(=O)[C@@]3(O)CC[C@H]4[C@@H]5CCC6=CC(=O)CC[C@]6(C)C5=CC[C@@]43C)CC2)nc(N(C)C)n1.Cl.Cl.O [Example 16, 17α-Hydroxy-21-[4-[2,6-bis(dimethylamino)-4-pyrimidinyl]-1-piperazinyl]pregna-4,9(11)-diene-3,20-dione dihydrochloride hydrate]
- inhibition of mucous secretion [1]: demonstrate such activity
- anti-ulcer activity [4]: demonstrates anti-ulcer activity
- % of Embryos with 4 mm or Greater Avascular Zone [3]: 91%

Compound: CCN(CC)c1ccc(N2CCN(CC(=O)[C@H]3CC[C@H]4[C@@H]5CCC6=CC(=O)C=C[C@]6(C)[C@H]5CC[C@]34C)CC2)nc1N(CC)CC.Cl.Cl [Example 120]
- % Inhibition at 10⁻⁶ M [2]: 56%
- inhibition of interleukin 1 ([2]; active = inhibits the activity of interleukin 1 greater than 30% at 10⁻⁶ M): demonstrate inhibition of interleukin 1
- inhibition of MDA formation [5]: demonstrate such activity by inhibition of MDA formation

Compound: C[C@@H]1C[C@H]2[C@@H]3CCC4=CC(=O)C=C[C@]4(C)C3=CC[C@]2(C)[C@H]1C(=O)CN1CCN(c2cc(N3CCOCC3)nc(N3CCOCC3)n2)CC1 [Example 86]
- inhibition of conjugated diene formation [6]: demonstrate such activity by inhibition of conjugated dienes
- % Inhibition at 10⁻⁶ M [2]: 84%
- inhibition of MDA formation [5]: demonstrate such activity by inhibition of MDA formation

Compound: CS(=O)(=O)O.C[C@]12CCC(=O)C=C1CC[C@@H]1C2=CC[C@@]2(C)[C@H]1CC[C@]2(O)C(=O)CN1CCN(c2ccccn2)CC1 [Example 2, 17α-Hydroxy-21-[4-(2-pyridinyl)-1-piperazinyl]pregna-4,9(11)-diene-3,20-dione methanesulfonate]
- inhibition of mucous secretion ([1]; methanesulfonate): preferred mucous inhibitors
- arachidonic acid antagonism [7]: demonstrate arachidonic acid antagonism
- inhibition of conjugated diene formation [6]: demonstrate such activity by inhibition of conjugated dienes

Compound: C[C@]12CCC(=O)C=C1CC[C@@H]1C2=CC[C@@]2(C)[C@H]1CC[C@]2(O)C(=O)CN1CCN(c2ccccn2)CC1.Cl [Example 3, 17α-Hydroxy-21-[4-(2-pyridinyl)-1-piperazinyl]pregna-4,9(11)-diene-3,20-dione hydrogen chloride salt]
- reduction of serum and arterial cholesterol [8]: demonstrates reduction of serum and arterial cholesterol
- % Inhibition of ACAT (5 »g/ml) [9]: 63.9%
- inhibiting ACAT [9]: active in inhibiting ACAT

Compound: CS(=O)(=O)O.CS(=O)(=O)O.C[C@@H]1C[C@H]2[C@@H]3CCC4=CC(=O)C=C[C@]4(C)C3=CC[C@]2(C)[C@H]1C(=O)CN1CCN(c2cc(N3CCCC3)nc(N3CCCC3)n2)CC1 [Example 83, 16α-Methyl-21-[4-[2,6-bis(pyrrolidino)-4-pyrimidyl]-1-piperazinyl]pregna-1,4,9(11)-triene-3,20-dione dimethane-sulfonate]
- inhibition of mucous secretion [1]: preferred mucous inhibitors
- inhibition of conjugated diene formation [6]: demonstrate such activity by inhibition of conjugated dienes
- % Inhibition at 10⁻⁶ M [2]: 62%
- inhibition of MDA formation [5]: demonstrate such activity by inhibition of MDA formation
- % Increase in 1 hr Post-Injury Grip Test Scores After 3 mg/kg [10]: 134.5%

Compound: CCN(CC)c1cc(N2CCN(CC(=O)[C@@]3(O)[C@H](C)C[C@H]4[C@@H]5CCC6=CC(=O)C=C[C@]6(C)C5=CC[C@@]43C)CC2)nc(N(CC)CC)n1.Cl.O [Example 18, 21-[4-[2,6-Bis(diethylamino)-4-pyrimidinyl]-1-piperazinyl]-17α-hydroxy-16α-methylpregna-1,4,9(11)-triene-3,20-dione hydrochloride hydrate]
- % Inhibition of ACAT (5 »g/ml) [9]: 48.4%
- inhibiting ACAT [9]: active in inhibiting ACAT
- % Increase in 1 hr Post-Injury Grip Test Scores After 3 mg/kg [10]: 112.6%
